Earlier results in PMC2965246 (Nucleic Acids Research, 2010).

Test system: GRPR
Settings: reported value

## bombesin [BBN]
  binding affinity to the GRPR: 79 nM
